Assay results: patent US9334273B1, “Efficient and stereoselective synthesis of 2′-fluoro-6′-methylene-carbocyclic adenosine (FMCA)” (UNIVERSITY OF GEORGIA RESEARCH FOUNDATION, INC., priority 2014, dated 2016)

Experiments:
[1] = test system: entecavir resistant triple mutant (L180M+M204V+S202G) HBV; details: cited from earlier work; for EC50: in vitro, entecavir resistant triple mutant (L180M+M204V+S202G)
[2] = test system: HBV wild type as well as resistant mutants; details: both wild type as well as resistant mutants; cited from earlier work

SMILES	EC50 [1] [nM]	anti-HBV efficacy [2]	fold less effective against the mutant in comparison to wild type ([1]; triple mutant (L180M+M204V+S202G) vs wild type) [fold]	melting point
C=C1C(COP(=O)(N[C@@H](C)C(=O)OC)Oc2ccccc2)C(O)C(F)C1n1cnc2c(N)ncnc21 (stereo partly drawn) [FMCAP]	54	demonstrated the anti-HBV efficacy		
C=C1[C@H](CO)[C@@H](O)C[C@@H]1n1cnc2c(=O)[nH]c(N)nc21 [entecavir, reference compound]			150	
C=C1[C@@H](n2cnc3c(N)ncnc32)C(F)C(O)[C@H]1CO (single isomer, unassigned; (+)) [FMCA, (+)-9-[(1′R, 2′R, 3′R, 4′R)-2′-Fluoro-3′-hydroxy-4′-(hydroxymethyl)-5′-methylenecyclo-pentan-1′-yl]-adenine]	670	demonstrated the anti-HBV efficacy		215 to 218 °C (dec.)
